# Laboratory results taken from patent US9624215B2, “Amine derivative or salt thereof” (TOYAMA CHEMICAL CO., LTD., priority 2012, dated 2017).
# Test system: normal human neonatal foreskin epidermal keratinocytes (NHEK-F)
# Assay: Cell proliferation inhibition test
# Format: cell-based
# Conditions: Keratinocyte, 72 h, NHEK-F cells, three days incubation, ATPlite or CellTiterGlo, read-out: IC50 (concentration of the compound at which the cell count is reduced by 50%)
# Method: 2×10^3 normal human neonatal foreskin epidermal keratinocytes (NHEK-F) (Kurabo, KK-4009) were suspended in 100 μL of Humedia-EG2 (Kurabo, KK-2150S) medium, plated in a 96-well plate and incubated overnight. The test compound was added on the following day and the cells were incubated for further three days. The cell count was determined using ATPlite (PerkinElmer, 6016739) or CellTiterGlo (Promega, G7573).
# The inhibition rate was calculated from the following formula to determine the concentration of the compound at which the cell count is reduced by 50% (IC50). Inhibition rate (%)=100−(cell count in the presence of test compound/cell count in the absence of test compound)×100
row,SMILES,IC50
1,"N#Cc1ccc(Cn2ccc3cc(Nc4ncc(C5CC5)cc4C(=O)O)ccc32)cc1 [Example 454, 2-((1-(4-cyanobenzyl)-1H-indol-5-yl)amino)-5-cyclopropylnicotinic acid]",10 to 100 nM
2,"O=C(O)c1cc(C2CC2)cnc1Nc1ccc2c(ccn2Cc2ccccc2Cl)c1 [Example 459, 2-((1-(2-chlorobenzyl)-1H-indol-5-yl)amino)-5-cyclopropylnicotinic acid]",≤ 10 nM
3,"O=C(O)c1cc(C2CC2)cnc1Nc1ccc2c(ccn2Cc2ccc(Cl)cc2)c1 [Example 461, 2-((1-(4-Chlorobenzyl)-1H-indol-5-yl)amino)-5-cyclopropylnicotinic acid]",≤ 10 nM
4,"Cn1ccc2cc(Nc3ncc(C4CC4)cc3C(=O)O)cc(-c3ccccc3-c3ccccc3)c21 [Example 463, 2-((7-([1,1′-biphenyl]-2-yl)-1-methyl-1H-indol-5-yl)amino)-5-cyclopropylnicotinic acid]",≤ 10 nM
5,"Cn1ccc2cc(Nc3ncc(C4CC4)cc3C(=O)O)cc(-c3cccc(F)c3)c21 [Example 465, 5-cyclopropyl-2-((7-(3-fluorophenyl)-1-methyl-1H-indol-5-yl)amino)nicotinic acid]",≤ 10 nM
6,"COC/C=C/c1cc(Nc2ncc(C3CC3)cc2C(=O)O)cc2ccn(C)c12 [Example 467, (E)-5-cyclopropyl-2-((7-(3-methoxyprop-1-en-1-yl)-1-methyl-1H-indol-5-yl)amino)nicotinic acid]",10 to 100 nM
7,"Cn1ccc2cc(Nc3ncc(C4CC4)cc3C(=O)O)cc(/C=C/C3CC3)c21 [Example 469, (E)-5-cyclopropyl-2-((7-(2-cyclopropylvinyl)-1-methyl-1H-indol-5-yl)amino)nicotinic acid]",≤ 10 nM
8,"Cn1ccc2cc(Nc3ncc(C4CC4)cc3C(=O)O)cc(C3=CCOCC3)c21 [Example 471, 5-cyclopropyl-2-((7-(3,6-dihydro-2H-pyran-4-yl)-1-methyl-1H-indol-5-yl)amino)nicotinic acid]",≤ 10 nM
9,"O=C(O)c1cc(C2CC2)cnc1Nc1cccc2c(N3CCCCC3)nccc12 [Example 473, 5-cyclopropyl-2-(1-(piperidin-1-yl)isoquinolin-5-ylamino)nicotinic acid]",10 to 100 nM
10,"O=C(O)c1cc(C2CC2)cnc1Nc1cccc2c(N3CCOCC3)nccc12 [Example 475, 5-cyclopropyl-2-(1-morpholinoisoquinolin-5-ylamino)nicotinic acid]",100 to 1000 nM
11,"Cc1ccccc1-c1cc(Nc2ncc(C3CC3)cc2C(=O)O)cc2ccn(C)c12 [Example 476, 5-cyclopropyl-2-((1-methyl-7-(o-tolyl)-1H-indol-5-yl)amino)nicotinic acid]",≤ 10 nM
12,"Cc1cccc(-c2cc(Nc3ncc(C4CC4)cc3C(=O)O)cc3ccn(C)c23)c1 [Example 477, 5-cyclopropyl-2-((1-methyl-7-(m-tolyl)-1H-indol-5-yl)amino)nicotinic acid]",≤ 10 nM
13,"Cc1ccc(-c2cc(Nc3ncc(C4CC4)cc3C(=O)O)cc3ccn(C)c23)cc1 [Example 478, 5-cyclopropyl-2-((1-methyl-7-(p-tolyl)-1H-indol-5-yl)amino)nicotinic acid]",≤ 10 nM
14,Cn1ccc2cc(Nc3ncc(C4CC4)cc3C(=O)O)cc(-c3ccccc3C(F)(F)F)c21 [Example 479],≤ 10 nM
15,Cn1ccc2cc(Nc3ncc(C4CC4)cc3C(=O)O)cc(-c3cccc(C(F)(F)F)c3)c21 [Example 480],≤ 10 nM
16,Cn1ccc2cc(Nc3ncc(C4CC4)cc3C(=O)O)cc(-c3ccc(C(F)(F)F)cc3)c21 [Example 481],≤ 10 nM
17,"Cn1ccc2cc(Nc3ncc(C4CC4)cc3C(=O)O)cc(-c3cccc(C#N)c3)c21 [Example 483, 2-((7-(3-cyanophenyl)-1-methyl-1H-indol-5-yl)amino)-5-cyclopropylnicotinic acid]",≤ 10 nM
18,"COc1cccc(-c2cc(Nc3ncc(C4CC4)cc3C(=O)O)cc3ccn(C)c23)c1 [Example 486, 5-cyclopropyl-2-((7-(3-methoxyphenyl)-1-methyl-1H-indol-5-yl)amino)nicotinic acid]",≤ 10 nM
